Literature values, collected in US20240170108A1, “METHOD AND SYSTEM FOR GENE EXPRESSION PREDICTION-BASED SCREENING OF DRUG-LIKE MOLECULES” (Tata Consultancy Services Limited, priority 2022, published 2024).

Tested on: VCAP cell line
Details: 10 μM concentration dose, 6 hrs of exposure

SMILES: O=c1cc(-c2ccc(O)cc2)oc2cc(O[C@@H]3O[C@H](CO)[C@@H](O)[C@H](O)[C@H]3O)cc(O)c12 [Cosmosiin]
- Characteristic Direction, APP (Gene ID 351) (gene APP): −0.0047
- Characteristic Direction, ARHGEF12 (Gene ID 23365) (gene ARHGEF12): −0.0376
- Characteristic Direction, ASAH1 (Gene ID 427) (gene ASAH1): −0.0172
- Characteristic Direction, ATF1 (Gene ID 466) (gene ATF1): −0.0167
- Characteristic Direction, BRCA1 (Gene ID 672) (gene BRCA1): −0.0305
- Characteristic Direction, CSNK1A1 (Gene ID 1452) (gene CSNK1A1): −0.0011
- Characteristic Direction, EED (Gene ID 8726) (gene EED): −0.0170
- Characteristic Direction, EGF (Gene ID 1950) (gene EGF): 0.0114
- Characteristic Direction, ETV1 (Gene ID 2115) (gene ETV1): −0.0108
- Characteristic Direction, FOXO3 (Gene ID 2309) (gene FOXO3): −0.0187
- Characteristic Direction, HLA-DMA (Gene ID 3108) (gene HLA-DMA): −0.0178
- Characteristic Direction, IL1B (Gene ID 3553) (gene IL1B): 0.0082
- Characteristic Direction, NFATC4 (Gene ID 4776) (gene NFATC4): −0.0087
- Characteristic Direction, NOS3 (Gene ID 4846) (gene NOS3): 0.0363
- Characteristic Direction, PSMD4 (Gene ID 5710) (gene PSMD4): −0.0161
- Characteristic Direction, PSME1 (Gene ID 5720) (gene PSME1): −0.0142
- Characteristic Direction, RALA (Gene ID 5898) (gene RALA): 0.0206
- Characteristic Direction, RHEB (Gene ID 6009) (gene RHEB): 0.0037
- Characteristic Direction, RHOA (Gene ID 387) (gene RHOA): −0.0166
- Characteristic Direction, SERPINE1 (Gene ID 5054) (gene SERPINE1): −0.0407
- Characteristic Direction, SOX2 (Gene ID 6657) (gene SOX2): 0.0276
- Characteristic Direction, TBP (Gene ID 6908) (gene TBP): −0.0084
- Characteristic Direction, TERT (Gene ID 7015) (gene TERT): 0.0054
